Reference: patent publication US7585867B2, “Substituted thiazolo[4,5-d]pyrimidin-2(3H)-one” (AstraZeneca AB, priority 2002, dated 2009)

Tests used:
hrCXCR2 = target: T1, hrCXCR2 (Homo sapiens, UniProt P25025); assay: Ligand binding assay ([125I]IL-8, HEK 293 membranes); conditions: displacement of ~50 pM [125I]IL-8 from membranes of HEK 293 cells expressing hrCXCR2, 1.5 hours at room temperature
T1 construct: expressed in transfected cells; host or cells: HEK 293 cells (ECACC No. 85120602), membrane preparation
T1 sequence (P25025 1-360): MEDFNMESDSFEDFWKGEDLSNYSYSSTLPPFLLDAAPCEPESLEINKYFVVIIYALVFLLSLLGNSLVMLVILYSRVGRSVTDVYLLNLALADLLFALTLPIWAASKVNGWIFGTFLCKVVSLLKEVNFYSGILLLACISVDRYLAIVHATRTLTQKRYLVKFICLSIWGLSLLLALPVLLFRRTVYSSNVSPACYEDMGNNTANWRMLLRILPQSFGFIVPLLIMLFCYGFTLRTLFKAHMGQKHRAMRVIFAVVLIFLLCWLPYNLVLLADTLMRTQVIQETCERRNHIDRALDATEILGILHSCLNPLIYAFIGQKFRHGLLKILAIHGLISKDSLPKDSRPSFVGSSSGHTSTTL
Text: [^125I]IL-8 (human, recombinant) was purchased from Amersham, U.K. with a specific activity of 2,000 Ci/mmol. All other chemicals were of analytical grade. High levels of hrCXCR2 were expressed in HEK 293 cells (human embryo kidney 293 cells ECACC No. 85120602) (Lee et al. (1992) J. Biol. Chem. 267 pp 16283-16291). hrCXC2 cDNA was amplified and cloned from human neutrophil mRNA. The DNA was cloned into PCRScript (Stratagene) and clones were identified using DNA. The coding sequence was sub-cloned into the eukaryotic expression vector RcCMV (Invitrogen). Plasmid DNA was prepared using Quiagen Megaprep 2500 and transfected into HEK 293 cells using Lipofectamine reagent (Gibco BRL). Cells of the highest expressing clone were harvested in phosphate-buffered saline containing 0.2%(w/v) ethylenediaminetetraacetic acid (EDTA) and centrifuged (200 g, 5 min.). The cell pellet was resuspended in ice cold homogenisation buffer [10 mM HEPES (pH 7.4), 1 mM dithiothreitol, 1 mM EDTA and a panel of protease inhibitors (1 mM phenyl methyl sulphonyl fluoride, 2 μg/ml soybean trypsin inhibitor, 3 mM benzamidine, 0.5 μg/ml leupeptin and 100 μg/ml bacitracin)] and the cells left to swell for 10 minutes. […] The backing plate was removed from the MultiScreen plate assembly, the filters dried at room temperature, punched out and then counted on a Cobra γ-counter.

[1] = target: T2, CXCR2 receptor in human neutrophils (Homo sapiens, UniProt P25025); assay: Intracellular calcium mobilisation assay (GROα, fluo-3, FLIPR); type: cell-based; conditions: A50 concentration of GROα, fluo-3 fluorescence
T2 construct: Human nutrophils were prepared from EDTA-treated peripheral blood; endogenous in cells; host or cells: human neutrophils from peripheral blood
T2 sequence (P25025 1-360): T1 sequence (P25025 1-360)
Protocol: Intracellular Calcium Mobilisation Assay
Human nutrophils were prepared from EDTA-treated peripheral blood, as previously described (Baly et al. (1997) Methods in Enzymology 287 pp 70-72), in storage buffer [Tyrode's salt solution (137 mM NaCl, 2.7 mM KCl, 0.4 mM NaH2PO4) supplemented with 5.7 mM glucose and 10 mM HEPES (pH 7.4)].
The chemokine GROα (human, recombinant) was purchased from R&D Systems (Abingdon, U.K.). All other chemicals were of analytical grade. Changes in intracellular free calcium were measured fluorometrically by loading neutrophils with the calcium sensitive fluorescent dye, fluo-3, as described previously (Merritt et al. (1990) Biochem. J. 269, pp513-519). Cells were loaded for 1 hour at 37° C. in loading buffer (storage buffer with 0.1% (w/v) gelatin) containing 5 μM fluo-3 AM ester, washed with loading buffer and then resuspended in Tyrode's salt solution supplemented with 5.7 mM glucose, 0.1% (w/v) bovine serum albumin (BSA), 1.8 mM CaCl2 and 1 mM MgCl2. […]
A compound of formula (I) according to the Examples was pre-dissolved in DMSO and added to a final concentration of 0.1% (v/v) DMSO. Assays were initiated by the addition of an A50 concentration of GROα and the transient increase in fluo-3 fluorescence (λEx=490 nm and λEm=520 nm) monitored using a FLIPR (Fluorometric Imaging Plate Reader, Molecular Devices, Sunnyvale, U.S.A.). […]

| SMILES | IC50 (hrCXCR2) [µM] | antagonism of GROα-induced intracellular calcium increase [1] | melting point |
| --- | --- | --- | --- |
| CC(CO)(CO)Nc1nc(SCc2cccc(F)c2F)nc2[nH]c(=O)sc12 [compound of formula (I), 5-[[(2,3-Difluorophenyl)methyl]thio]-7-[[2-hydroxy-1-(hydroxymethyl) 1 methylethyl]amino]-thiazolo[4,5-d]pyrimidin-2(3H)-one] | < 10 | antagonist | 230 to 233 °C |
| CC(CO)(CO)Nc1nc(SCc2cccc(F)c2F)nc2[nH]c(=O)sc12.[Na] |  |  | 238 °C (dec.) |
